A word on the logP: it is a log measure of how a compound divides between an organic and an aqueous phase.

Structures are written as SMILES.

Among the data in the SangsterLogP compilation are logP values, retold here.

In the case of `CC(C)(C)C(=O)NCCCCN1CCc2ccccc2C1`, the logP turned out to be 3.31.
With `O=C(NCCCN1CCc2ccccc2C1)C1CC1` the figure was 2.75; with `O=C(NCCCCN1CCc2ccccc2C1)C1CCC2CCCC21` (configuration not stated), 4.46.
In the case of `CC(=O)NCCCCN1CCc2ccccc2C1` it was 2.3; in that of `O=C(NCCN1CCc2ccccc2C1)C1CCCCC1`, 3.14.
With `O=C(CC1CC2CCC1C2)NCCN1CCc2ccccc2C1` (configuration not stated) the figure was 4.26; with `CC(C)(C)C(=O)NCCN1CCc2ccccc2C1`, 3.13.
`O=C(NCCCCN1CCc2ccccc2C1)C1CC1` came in with a logP of 3.02.
In the case of `O=C(NCCCN1CCc2ccccc2C1)C1CCCCC1` it was 3.44; in that of `O=C(NCCN1CCc2ccccc2C1)C1CCC2CCCC21` (configuration not stated), 4.37.
The compound `O=C(NCCCCN1CCc2ccccc2C1)C12CC3CC(CC(C3)C1)C2` came in with a logP of 4.82.
With `CC(C)C(=O)NCCCCN1CCc2ccccc2C1` the figure was 2.93.
With `O=C(NCCCN1CCc2ccccc2C1)C1CCCC1` the figure was 3.45; with `O=C(NCCCN1CCc2ccccc2C1)C12CC3CC(CC(C3)C1)C2`, 5.14.
In the case of `O=C(NCCN1CCc2ccccc2C1)C12CC3CC(CC(C3)C1)C2` it was 4.61.
As for `O=C(NCCCN1CCc2ccccc2C1)C1CCC1`, the logP is 3.12.
With `O=C(NCCN1CCc2ccccc2C1)C1CCCC1` the figure was 3.52; with `CC(C)C(=O)NCCCN1CCc2ccccc2C1`, 2.56; with `O=C(CC1CC2CCC1C2)NCCCCN1CCc2ccccc2C1` (configuration not stated), 4.58.
Regarding `CC(=O)NCCCN1CCc2ccccc2C1`, the logP was found to be 2.66.
In the case of `O=C(NCCCCN1CCc2ccccc2C1)C1CCC1` it was 3.3.
In the case of `O=C(NCCN1CCc2ccccc2C1)C1CC1` it was 2.76; in that of `CC(C)C(=O)NCCN1CCc2ccccc2C1`, 2.87; in that of `CC(=O)NCCN1CCc2ccccc2C1`, 1.83.
With `O=C(NCCCN1CCc2ccccc2C1)C1CCC2CCCC21` (configuration not stated) the figure was 4.5.
`CC(C)(C)C(=O)NCCCN1CCc2ccccc2C1` yielded a logP of 3.46.
`O=C(NCCN1CCc2ccccc2C1)C1CCC1`: the logP is 2.9.
